Assay results taken from patent publication US5466687A, “Arylidene-1-azacycloalkanes and arylalkyl-1-azacyclo-alkanes, their salts, medicaments containing these compounds and their use, and processes for their preparation” (priority 1992, dated 1995).

Key:
[1] = system: human hepatoma cells (HEP-G2); assay: Inhibition of 14C-acetate incorporation in digitonin-precipitatable steroids in HEP-G2 cells; format: cell-based; settings: for percent change in 14C-acetate incorporation into sterols at 0.1 µM / percent change in 14C-acetate incorporation into sterols at 0.01 µM: Homo sapiens; for percent change in 14C-acetate incorporation into sterols at 0.1 µM: HepG2, 10^-7 mol/l; for percent change in 14C-acetate incorporation into sterols at 0.01 µM: HepG2, 10^-8 mol/l
Protocol: I. Measurement of the inhibition of ^14 C-acetate incorporation in digitonin-precipitatable steroids:
After 3 days of culture, human hepatoma cells (HEP-G2) are stimulated for 16 hours in cholesterol-free medium. The substances to be tested (dissolved in dimethyl sulphoxide, final concentration 0.1%) are added during this stimulation phase. After the addition of 200 μmol/l of 2-^14 C-acetate, the mixture is then reincubated at 37° C. for a further 2 hours.
The cells are detached and the sterol esters are hydrolyzed and, after extraction, sterols are precipitated using digitonin. The ^14 C-acetate incorporated into digitonin-precipitatable sterols is determined by scintillation measurement.
The investigation of the inhibitory action was carried out at test concentrations of 10^-7 mol/l and 10^-8 mol/l. The test results of the following compounds A to AG of the general formula I are indicated at these test concentrations by way of example: […]

[2] = system: 2,3-epoxysqualene-lanosterol cyclase; assay: In vivo effect in the rat after oral administration: 2,3-epoxysqualene level in plasma; design: species or system rat (male Wistar); settings: 5 hours after administration
Protocol: II. Measurement of the in vivo effect in the rat after oral administration
The inhibition of the enzyme 2,3-epoxysqualene-lanosterol cyclase causes an increase in the 2,3-epoxy-squalene level in the liver and plasma. Therefore, the amount of 2,3-epoxysqualene formed therefore serves as a direct measure of the effectiveness in the whole animal. The determination is carried out by the following method:
The test substance suspended in 1.5% strength aqueous methylcellulose is administered via stomach tube to male Wistar rats (160-190 g body weight). 5 hours after administration, blood is obtained retroorbitally from the venous plexus. Plasma is extracted by the method of Bligh and Dyer (Canad. J. Biochem. Physiol. 37, 912, [1959]), purified by means of a precolumn and then analyzed by means of HPLC. The peaks obtained are identified and quantified by means of calibration substances. An internal standard is used to check the reproducibility of the results.
The investigations were carried out using concentrations of 0.1 and 1.0 mg/kg. The results for the above mentioned substances A to M are compiled in the following Table by way of example: […]

SMILES	percent change in 14C-acetate incorporation into sterols at 0.1 µM [1] [%]	percent change in 14C-acetate incorporation into sterols at 0.01 µM [1] [%]	2,3-Epoxysqualene concentration in plasma (rat) ([2]; 0.1 mg/kg oral) [µg/mL]	2,3-Epoxysqualene concentration in plasma (rat) ([2]; 1.0 mg/kg oral) [µg/mL]	inhibition of 14C-acetate incorporation ([1]; 10^-7 mol/l) [%]	inhibition of 14C-acetate incorporation ([1]; 10^-8 mol/l) [%]
O=C(c1ccccc1)N1CCC(=Cc2ccc(C3=NCCO3)cc2)CC1 [AA, 1-benzoyl-4-[4-(2-oxazolin-2-yl)benzylidene]piperidine]	-70	-25				
CC(C)(C)c1ccc(C(=O)N2CCC(=Cc3ccc(C4=NCCO4)cc3)CC2)cc1 [AB, 1-(4-tert.butylbenzoyl)-4-[4-(2-oxazolin-2-yl)benzylidene]piperidine]	-18	-6				
COc1ccc(C(=O)N2CCC(=Cc3ccc(C4=NCCO4)cc3)CC2)cc1 [AC, 1-(4-methoxybenzoyl)-4-[4-(2-oxazolin-2-yl)benzylidene]piperidine]	-25	-16				
O=C(c1ccc(Br)cc1)N1CCC(=Cc2ccc(C3=NCCO3)cc2)CC1 [AD, 1-(4-bromobenzoyl)-4-[4-(2-oxazolin-2-yl)benzylidene]piperidine]	-85	-44				
O=C(c1ccc([N+](=O)[O-])cc1)N1CCC(=Cc2ccc(C3=NCCO3)cc2)CC1 [AE, 1-(4-nitrobenzoyl)-4-[4-(2-oxazolin-2-yl)benzylidene]piperidine]	-71	-22				
O=C(Cc1ccc(Cl)cc1)N1CCC(=Cc2ccc(C3=NCCO3)cc2)CC1 [AF, 1-(4-chlorophenylacetyl)-4-[4-(2-oxazolin-2-yl)benzylidene]piperidine]	-63	-22				
O=C(c1cccc2ccccc12)N1CCC(=Cc2ccc(C3=NCCO3)cc2)CC1 [AG, 1-(1-naphthylcarbonyl)-4-[4-(2-oxazolin-2-yl)benzylidene]piperidine]	-67	-30				
O=C(c1ccc(Cl)cc1)N1CCC(=Cc2ccc(C3=NCCCO3)cc2)CC1 [B, 1-(4-chlorobenzoyl)-4-[4-(4,5-dihydro-6H-oxazin-2-yl)benzylidene]piperidine]	-77	-51	0.46	3.14		
O=C(c1ccc(C(F)(F)F)cc1)N1CCC(=Cc2ccc(C3=NCCO3)cc2)CC1 [C, 4-[4-(2-oxazolin-2-yl)benzylidene]-1-(4-trifluoromethylbenzoyl)piperidine]	-90	-74	0.91	5.90		
Cc1cc(C(=O)N2CCC(=Cc3ccc(C4=NCCO4)cc3)CC2)ccc1Cl [D, 1-(4-chloro-3-methylbenzoyl)-4-[4-(2-oxazolin-2-yl)benzylidene]piperidine]	-88	-55	0.78	3.35		
O=C(c1ccc(F)cc1)N1CCC(=Cc2ccc(C3=NCCO3)cc2)CC1 [E, 1-(4-fluorobenzoyl)-4-[4-(2-oxazolin-2-yl)benzylidene]piperidine]	-81	-36	0.67	6.09		
O=S(=O)(c1ccc(Cl)cc1)N1CCC(=Cc2ccc(C3=NCCO3)cc2)CC1 [N, 1-(4-chlorobenzenesulphonyl)-4-[4-(2-oxazolin-2-yl)benzylidene]piperidine]	-86	-63				
O=S(=O)(c1ccc(Cl)cc1)N1CCC(=Cc2ccc(C3=NCCN3)cc2)CC1 [O, 1-(4-chlorobenzenesulphonyl)-4-[4-(2-imidazolin-2-yl)benzylidene]piperidine]	-45	-1				
O=C(c1ccc(Cl)cc1)N1CCC(Cc2ccc(C3=NCCS3)cc2)CC1 [P, 1-(4-chlorobenzoyl)-4-[4-(2-thiazolin-2-yl)benzyl]piperidine]	-14	-5				
C[C@H]1CN=C(c2ccc(C=C3CCN(C(=O)c4ccc(Cl)cc4)CC3)cc2)O1 [Q, 1-(4-chlorobenzoyl)-4-[4-(S-5-methyl-2-oxazolin-2-yl)benzylidene]piperidine]	-89	-44				
C[C@@H]1COC(c2ccc(C=C3CCN(C(=O)c4ccc(Cl)cc4)CC3)cc2)=N1 [R, 1-(4-chlorobenzoyl)-4-[4-(R-4-methyl-2-oxazolin-2-yl)benzylidene]piperidine]	-88	-57				
O=C(c1ccc(Cl)cc1)N1CCC(=Cc2ccc(C3=NCC(c4ccccc4)O3)cc2)CC1 (centres unmarked) [S, 1-(4-chlorobenzoyl)-4-[4-(5-phenyl-2-oxazolin-2-yl)benzylidene]piperidine]	-24	0				
CCN(CC)CC1CN=C(c2ccc(C=C3CCN(C(=O)c4ccc(Cl)cc4)CC3)cc2)O1 (centres unmarked) [T, 1-(4-chlorobenzoyl)-4-[4-(5-diethylaminomethyl-2-oxazolin-2-yl)benzylidene]piperidine]	-57	-29				
O=C(c1ccc(Cl)cc1)N1CCC(=Cc2ccc(C3=NC(CO)CO3)cc2)CC1 (centres unmarked) [U, 1-(4-chlorobenzoyl)-4-[4-(4-hydroxymethyl-2-oxazolin-2-yl)benzylidene]piperidine]	-60	-21				
O=C(c1ccc(Cl)cc1)N1CCC(=Cc2ccc(C3=N[C@@H](Cc4ccccc4)CO3)cc2)CC1 [V, 4-[4-(S-4-benzyl-2-oxazolin-2-yl)benzylidene]-1-(4-chlorobenzoyl)piperidine]	-29	-15				
CC(=C1CCN(C(=O)c2ccc(Cl)cc2)CC1)c1ccc(C2=NCCO2)cc1 [W, 1-(4-chlorobenzoyl)-4-[4-(2-oxazolin-2-yl)-α-methylbenzylidene]piperidine]	-77	-35				
O=C(c1ccc(Cl)s1)N1CCC(=Cc2ccc(C3=NCCO3)cc2)CC1 [X, 1-(5-chloro-2-thienoyl)-4-[4-(2-oxazolin-2-yl)benzylidene]piperidine]					-84	-35
N#Cc1ccc(C(=O)N2CCC(=Cc3ccc(C4=NCCO4)cc3)CC2)cc1 [Y, 1-(4-cyanobenzoyl)-4-[4-(2-oxazolin-2-yl)benzylidene]piperidine]	-74	-51				
O=C(c1c(F)c(F)c(F)c(F)c1F)N1CCC(=Cc2ccc(C3=NCCO3)cc2)CC1 [Z, 4-[4-(2-oxazolin-2-yl)benzylidene]-1-(pentafluorobenzoyl)piperidine]	-45	-8				
